Patent publication US20140328795A1, “VIRUCIDAL SMALL MOLECULE AND USES THEREOF” (The Texas A&M University System, priority 2012, published 2014)
Read-outs that look alike come from different tables or passages of the source.

Legend:
[1] = system: primary HIV-1 isolates; assay: microbe, parasite or virus in culture; format: cell-based; details: Human immunodeficiency virus 1, TZM-bl
[2] = system: Lactobacillus crispatus; assay: Lactobacillus toxicity testing (CFU); format: cell-based; details: 37° C.
Protocol: (§1) Reference strains of L. crispatus and L. jensenii were obtained from the ATCC (Manassas, Va.) and cultured on Columbia blood agar plates at 35° C. in air enriched with 6% CO2. Bacterial suspensions were prepared in saline or ACES buffer to a density of 2 McFarland units (˜2×10^8 bacteria/mL), and exposed to PD (300 μM) or DMSO (10%) for 30 minutes at 37° C. After incubation, the cells were serially diluted in ACES buffer, pH 7.0 (Sigma-Aldrich, St. Louis, Mo.) and plated on blood agar plates to quantify colony forming unit per mL (CFU/mL)
(§2) Different bacterial strains were incubated with 300 μM PD or solvent DMSO-containing control media at 37° C. for 30 min and plated on blood agar plates to estimate their corresponding colony forming units per ml (CFU/ml). Less than 1 log difference between control and test CFU is considered non-toxic17.

[3] = system: Lactobacillus jensenii; assay: Lactobacillus toxicity testing (CFU); format: cell-based; details: 37° C.
Protocol: as §1, §2

[4] = system: HCVcc; set-up: species or system HCV
[5] = system: Sindbis virus (SINV); format: cell-based
[6] = system: Dengue virus (DenV); assay: Dengue virus plaque assay on Vero cells; format: cell-based, Serotype 2 New Guinea C strain Dengue virus; details: 300 μM PD
[7] = system: HIV-1 (R5 JR-CSF); assay: Antiviral effect of PD before, during and after HIV-1 exposure (TZM-bl); format: cell-based
[8] = system: VSV-Gpp; format: physicochemical
[9] = system: HSV-1 virions; details: 0.2 μM PD, 30 min, 37° C.; 20-70% sucrose gradient
Protocol: FIGS. 16A-16B depict effectiveness of PD against HSV. PD blocks HSV infection. Vero cells were seeded in a 24-well plate and infected with HSV-1 (Syn 17) or HSV-2 (333) (FIG. 16A). PD (200 nM) or control DMSO (0.01%) was added immediately to the target cells after viral inoculation. Two days later, the cells were harvested, stained with antibody against HSV glycoprotein gD and analyzed by flow cytometry. Error bars represent standard deviation of triplicate samples. Results are representative of two independent experiments. PD Destabilizes HSV particles (FIG. 16B). […] The amount of HSV glycoprotein gpB in each fraction was analyzed by ELISA. The sucrose gradient density of each fraction was determined by measuring the refractive index. […]
HSV was concentrated by loading 30 mL HSV-1-infected Vero cell supernatant on a 20% sucrose cushion and centrifuged in a SW28 rotor at 20,000 rpm for 1 h at 4° C. […] After ultracentrifugation at 30,000 rpm for 24 h in a SW-41 T rotor at 4° C., fractions of 1 mL were collected and analyzed for HSV gpB content by enzyme-linked immunosorbent assay (ELISA) using homemade rabbit polyclonal antibody. The density of each fraction from the sucrose gradient was determined by measuring the refractive index.
Applicants also investigated whether PD can disrupt the structure of HSV virions. […] Each gradient fraction was analyzed for HSV glycoprotein gpB by ELISA. […]

[10] = system: freshly activated human PBMCs
[11] = system: primary CD4+ T-lymphocytes, macrophages and dendritic cells; assay: Primary cells toxicity testing (LDH release); details: up to 14 days

For `N=C1Sc2ccccc2C2=NCCCN12` [PD, PD 404,182], the IC90 ([1]; HIV-1 92HT599 (clade B, X4), PD in DMEM with 10% fetal bovine serum, IC90 per footnote) was 5.8 µM, the IC90 ([1]; HIV-1 92HT599 (clade B, X4), PD in cervical fluids, IC90 per footnote) was 6.4 µM and the IC90 ([1]; HIV-1 92HT599 (clade B, X4), PD in seminal plasma, IC90 per footnote) was 6.31 µM. The IC90 ([1]; HIV-1 92RW021 (clade A, R5), PD in DMEM with 10% fetal bovine serum, IC90 per footnote) was 3.8 µM, the IC90 ([1]; HIV-1 92RW021 (clade A, R5), PD in cervical fluids, IC90 per footnote) was 4.4 µM and the IC90 ([1]; HIV-1 92TH003 (clade E, R5), PD in DMEM with 10% fetal bovine serum, IC90 per footnote) was 8.6 µM. It also gave an IC90 ([1]; HIV-1 92TH003 (clade E, R5), PD in cervical fluids, IC90 per footnote) of 7.8 µM, an IC90 ([1]; HIV-1 92TH003 (clade E, R5), PD in seminal plasma, IC90 per footnote) of 6.73 µM and an IC90 ([1]; HIV-1 92TH029 (clade B, R5), PD in DMEM with 10% fetal bovine serum, IC90 per footnote) of 2.8 µM. The IC90 ([1]; HIV-1 92TH029 (clade B, R5), PD in cervical fluids, IC90 per footnote) was 3.3 µM, the IC90 ([1]; HIV-1 92TH029 (clade B, R5), PD in seminal plasma, IC90 per footnote) was 2.95 µM and the IC50 ([1]; HIV-1 92UG024 (clade D, X4), PD in DMEM with 10% fetal bovine serum) was 0.33 µM. For the same molecule, the IC90 ([1]; HIV-1 92UG024 (clade D, X4), PD in DMEM with 10% fetal bovine serum, IC90 per footnote) was 1.4 µM, the IC90 ([1]; HIV-1 92UG024 (clade D, X4), PD in cervical fluids, IC90 per footnote) was 1.8 µM and the IC90 ([1]; HIV-1 92UG024 (clade D, X4), PD in seminal plasma, IC90 per footnote) was 1.68 µM. It also gave an IC90 ([1]; HIV-1 92UG029 (clade A, X4), PD in DMEM with 10% fetal bovine serum, IC90 per footnote) of 4.4 µM, an IC90 ([1]; HIV-1 92UG029 (clade A, X4), PD in cervical fluids, IC90 per footnote) of 5.3 µM and an IC90 ([1]; HIV-1 92UQ085 (clade D, R5), PD in DMEM with 10% fetal bovine serum, IC90 per footnote) of 5.3 µM. It also gave an IC90 ([1]; HIV-1 92UQ085 (clade D, R5), PD in cervical fluids, IC90 per footnote) of 6.7 µM, an IC90 ([1]; HIV-1 92UQ085 (clade D, R5), PD in seminal plasma, IC90 per footnote) of 6.67 µM and an IC90 ([1]; HIV-1 93BR020 (clade F, X4), PD in DMEM with 10% fetal bovine serum, IC90 per footnote) of 6.8 µM. It also gave an IC90 ([1]; HIV-1 93BR020 (clade F, X4), PD in cervical fluids, IC90 per footnote) of 7.6 µM, an IC90 ([1]; HIV-1 93BR020 (clade F, X4), PD in seminal plasma, IC90 per footnote) of 7.19 µM and an IC90 ([1]; HIV-1 93BR028 (clade F, R5), PD in DMEM with 10% fetal bovine serum, IC90 per footnote) of 3.6 µM. It also gave an IC90 ([1]; HIV-1 93BR028 (clade F, R5), PD in cervical fluids, IC90 per footnote) of 4.6 µM, an IC90 ([1]; HIV-1 93BR028 (clade F, R5), PD in seminal plasma, IC90 per footnote) of 3.72 µM and an IC90 ([1]; HIV-1 93IN101 (clade C, R5), PD in DMEM with 10% fetal bovine serum, IC90 per footnote) of 5.1 µM. For the same molecule, the IC90 ([1]; HIV-1 93IN101 (clade C, R5), PD in cervical fluids, IC90 per footnote) was 5.6 µM, the IC90 ([1]; HIV-1 93IN101 (clade C, R5), PD in seminal plasma, IC90 per footnote) was 5.38 µM and the IC90 ([1]; HIV-1 93TH083 (clade E, X4), PD in DMEM with 10% fetal bovine serum, IC90 per footnote) was 6.3 µM. It also gave an IC90 ([1]; HIV-1 93TH083 (clade E, X4), PD in cervical fluids, IC90 per footnote) of 6.4 µM, an IC90 ([1]; HIV-1 93TH083 (clade E, X4), PD in seminal plasma, IC90 per footnote) of 6.66 µM and an IC90 ([1]; HIV-1 98IN017 (clade C, X4), PD in cervical fluids, IC90 per footnote) of 2.4 µM. It also gave an IC90 ([1]; HIV-1 98IN017 (clade C, X4), PD in seminal plasma, IC90 per footnote) of 2.09 µM, an IC90 ([1]; HIV-1 Jv1063 (clade G, R5), PD in DMEM with 10% fetal bovine serum, IC90 per footnote) of 3.8 µM and an IC50 ([1]; HIV-1 RU132 (clade G, R5), PD in DMEM with 10% fetal bovine serum) of 0.8 µM. It also gave an IC90 ([1]; HIV-1 RU132 (clade G, R5), PD in DMEM with 10% fetal bovine serum, IC90 per footnote) of 3.1 µM, an IC90 ([1]; HIV-1 RU132 (clade G, R5), PD in cervical fluids, IC90 per footnote) of 3.8 µM and an IC90 ([1]; HIV-1 RU132 (clade G, R5), PD in seminal plasma, IC90 per footnote) of 3.26 µM. It also gave an IC50 ([1]; broad range of primary HIV-1 isolates as well as HIV-2) of about 1 µM, an IC50 ([1]; read-out: IC50, range over the tested subtypes of HIV-1, PD in DMEM, TZM-bl) of 0.33 to 1.8 µM and an IC50 ([1]; read-out: IC50, range over the tested subtypes of HIV-1, PD in cervical fluid, TZM-bl) of 0.61 to 2.3 µM. It also gave an IC90 ([1]; read-out: IC90, range over the tested subtypes of HIV-1, PD in DMEM, TZM-bl) of 1.4 to 6.6 µM, an IC90 ([1]; read-out: IC90, range over the tested subtypes of HIV-1, PD in cervical fluid, TZM-bl) of 1.8 to 7.5 µM and an IC50 ([1]; several isolates of HIV-1 and SIV in TZM-bl cells, PD diluted in DMEM or cervical fluid) of about 1 µM. For the same molecule, the “CFU of Lactobacillus treated with 300 μM PD” value (“CFU of Lactobacillus treated” for short) ([2]; Lactobacillus crispatus ATCC 33197, 30 min) was 7,260,000 CFU/ml, the “Log(Control)-Log(PD)” value ([2]; Lactobacillus crispatus ATCC 33197, 300 μM PD, 30 min) was −0.019 and the “CFU of Lactobacillus treated” value ([3]; Lactobacillus jensenii ATCC 25258, 30 min) was 7,533,333 CFU/ml. The “CFU of Lactobacillus treated” value ([3]; Lactobacillus jensenii LBP 28Ab, 30 min) was 10,033,333 CFU/ml, the “Log(Control)-Log(PD)” value ([3]; Lactobacillus jensenii LBP 28Ab, 300 μM PD, 30 min) was −0.021 and the HCVcc virion lysis [4] was “Little to no virion lysis”. The “effect on infectivity of SINV” value [5] was “no significant inhibitory effect”, the “effect on infectivity of DenV” value [6] was “no significant inhibitory effect” and the “effect on HIV-1 infection” value ([7]; 10 μM PD added 1, 2, 4 and 8 h after virus inoculation) was “loses its antiviral effect”. For the same molecule, the “effect on HIV-1 infection” value ([7]; 10 μM PD added to cells before the virus) was “retains its full potency up to 8 h before the addition of the virus”, the “effect on HIV-1 infection” value ([7]; 10 μM PD added together with the virus (time zero)) was “significantly inhibits HIV-1 infection” and the “effect on HIV-1 infection” value ([7]; extended (>16 h) preincubation of PD with cells prior to virus inoculation) was “significantly reduces the compound's antiviral efficacy”. For the same molecule, the antiviral activity lost [8] was “no activity loss”, the stability ([8]; pH 4) was “highly stable” and the “sedimentation of HSV gpB in sucrose gradient” value [9] was “all gpB distributed to the top of the gradient”. The “reduction in cell viability” value [10] was 48% and the CC50 [11] was over 300 µM.
